Source: patent US11891396B1, “5-substituted pyrido[3″,4″:4′,5′]pyrrolo[3′,2′:4,5]imidazo[1,2-a]pyrazine compounds as CK2 inhibitors” (KING FAISAL UNIVERSITY, priority 2023, dated 2024)

Columns and labels:
MDA-MB-231 (breast) = test: In vitro cytotoxic activity assay (MTT), MDA-MB-231; type: cell-based; conditions: Homo sapiens; MDA-MB-231 (breast) cells, exposed for 96 hours; read-out: IC50, concentration eliciting 50% inhibition of cell proliferation
Experimental: (§1) Compounds 1-15 were screened for their in vitro cytotoxic activity utilizing a 3-(4,5-dimethyl-thiazol-2-yl)-2,5-diphenyltetrazolium bromide (MTT) assay against selected cancer human cell lines consisting of PC3 (prostate), HCT116 (colon), A375 (melanoma), H1299 (lung), MIAPaCa-2 (pancreas), HL60 (leukemia), MCF7 (breast), MDA-MB-231 (breast) (T. Mosmann, J. Immunol. Meth., 1983, 65, 55-63). The cells were cultured at 37° C. in RMPI1640 medium supplemented with 10% fetal bovine serum, 50 IU/mL penicillin, and 50 μg/mL streptomycin in a 5% CO2 incubator. All cells were sub-cultured 3 times/week by trypsinisation. Viable cells were seeded and allowed to adhere for 12 h before a test drug was added in 96-well plates at an initial density of 1.0×10^5 cells/mL. Tumour cell lines were separately exposed to various concentrations of the tested compounds followed by incubation at a temperature of 37° C. during 96 h inside a medium of fresh RMPI 1640. Cells were subsequently incubated at 37° C. using MTT at 0.5 mg/mL during 4 h. After removal of supernatant, formazan crystals were dissolved in isopropanol and the optical density was measured at 570 nm. CX-4945 was used as a positive control.

A375 (melanoma) = test: In vitro cytotoxic activity assay (MTT), A375; type: cell-based; conditions: Homo sapiens, A-375; A375 (melanoma) cells, exposed for 96 hours; read-out: IC50, concentration eliciting 50% inhibition of cell proliferation
Experimental: as §1

HL60 (leukemia) = test: In vitro cytotoxic activity assay (MTT), HL60; type: cell-based; conditions: Homo sapiens, HL-60; HL60 (leukemia) cells, exposed for 96 hours; read-out: IC50, concentration eliciting 50% inhibition of cell proliferation
Experimental: as §1

recombinant human CK2 = biological target: T1, recombinant human CK2 (Homo sapiens, UniProt P68400); test: CK2 Kinase Assay (33P-ATP, substrate peptide RRRDDDSDDD); type: biochemical; conditions: final ATP concentration 15 μM, 10 min at 30° C.; read-out: protein kinase CK2 IC50
T1 construct: purchased Millipore
T1 sequence (P68400 whole entry): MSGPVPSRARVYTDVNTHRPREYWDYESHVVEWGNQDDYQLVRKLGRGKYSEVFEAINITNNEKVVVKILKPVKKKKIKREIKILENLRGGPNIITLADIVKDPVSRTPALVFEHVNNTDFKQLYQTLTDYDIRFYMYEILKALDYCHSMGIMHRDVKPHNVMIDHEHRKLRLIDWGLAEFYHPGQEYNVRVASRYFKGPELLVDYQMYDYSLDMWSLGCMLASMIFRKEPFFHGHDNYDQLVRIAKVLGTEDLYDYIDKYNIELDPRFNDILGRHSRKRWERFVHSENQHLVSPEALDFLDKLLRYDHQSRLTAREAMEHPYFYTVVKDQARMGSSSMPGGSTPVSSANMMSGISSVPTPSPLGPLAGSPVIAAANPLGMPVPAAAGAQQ
T1 sequence (P67870 whole entry partner): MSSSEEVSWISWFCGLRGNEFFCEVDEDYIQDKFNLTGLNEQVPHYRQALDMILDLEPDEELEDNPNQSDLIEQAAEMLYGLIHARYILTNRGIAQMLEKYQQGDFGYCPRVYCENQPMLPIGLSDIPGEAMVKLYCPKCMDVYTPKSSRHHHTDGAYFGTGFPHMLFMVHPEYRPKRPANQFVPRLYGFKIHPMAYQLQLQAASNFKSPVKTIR
Experimental: CK2 Kinase Assay was conducted using the protocol as described in Pierre F. et al; J. Med. Chem. 2011, 54, 635-654. The tested compounds in aqueous solution were added at a volume of 10 μL to a reaction mixture comprising 10 μL of assay dilution buffer (ADB; 20 mM MOPS, pH 7.2, 25 mM β-glycerol phosphate, 5 mM EGTA, 1 mM sodium orthovanadate, and 1 mM dithiothreitol), 10 μL of substrate peptide (RRRDDDSDDD, dissolved in ADB at a concentration of 1 mM), 10 μL of recombinant human CK2 (RROP-holoenzyme, 25 ng dissolved in ADB; Millipore). Reactions were initiated by the addition of 10 μL of ATP solution (90% 75 mMMgCl2, 75 μM ATP (final ATP concentration: 15 μM) dissolved in ADB; 10% [γ-33P] ATP (stock 1 mCi/100 L; 3000 Ci/mmol (Perkin-Elmer) and maintained for 10 min at 30° C. The reactions were quenched with 100 μL of 0.75% phosphoric acid and then transferred to and filtered through a phosphor cellulose filter plate (Millipore). After washing each well five times with 0.75% phosphoric acid, the plate was dried under vacuum for 5 min and, following the addition of 15 μL of scintillation fluid to each well, the residual radioactivity was measured using a Wallac luminescence counter. The IC50 values were derived from eight concentrations of test inhibitors.

MIAPaCa-2 (pancreas) = test: In vitro cytotoxic activity assay (MTT), MIAPaCa-2; type: cell-based; conditions: Homo sapiens, MIA PaCa-2; MIAPaCa-2 (pancreas) cells, exposed for 96 hours; read-out: IC50, concentration eliciting 50% inhibition of cell proliferation
Experimental: as §1

MCF7 (breast) = test: In vitro cytotoxic activity assay (MTT), MCF7; type: cell-based; conditions: Homo sapiens; MCF7 (breast) cells, exposed for 96 hours; read-out: IC50, concentration eliciting 50% inhibition of cell proliferation
Experimental: as §1

HCT116 (colon) = test: In vitro cytotoxic activity assay (MTT), HCT116; type: cell-based; conditions: Homo sapiens, HCT-116; HCT116 (colon) cells, exposed for 96 hours; read-out: IC50, concentration eliciting 50% inhibition of cell proliferation
Experimental: as §1

PC3 (prostate) = test: In vitro cytotoxic activity assay (MTT), PC3; type: cell-based; conditions: Homo sapiens, Prostate cell; PC3 (prostate) cells, exposed for 96 hours; read-out: IC50, concentration eliciting 50% inhibition of cell proliferation
Experimental: as §1

H1299 (lung) = test: In vitro cytotoxic activity assay (MTT), H1299; type: cell-based; conditions: Homo sapiens, NCI-H1299; H1299 (lung) cells, exposed for 96 hours; read-out: IC50, concentration eliciting 50% inhibition of cell proliferation
Experimental: as §1

SMILES: Clc1cccc(-n2c3ccncc3c3nc4cnccn4c32)c1 [Compound 1, 5-(3-chlorophenyl)-5H-pyrido[3″,4″:4′,5′]pyrrolo[3′,2′:4,5]imidazo[1,2-a]pyrazine]
- IC50 (MDA-MB-231 (breast)): 3.9 µM
- IC50 (A375 (melanoma)): 4.4 µM
- IC50 (HL60 (leukemia)): 3 µM
- IC50 (recombinant human CK2): 0.047 µM
- IC50 (MIAPaCa-2 (pancreas)): 1.2 µM
- IC50 (MCF7 (breast)): 5.6 µM
- IC50 (HCT116 (colon)): 1.9 µM
- IC50 (PC3 (prostate)): 1.5 µM
- IC50 (H1299 (lung)): 2.1 µM
